Experimental data reported in the NIST ThermoML archive (doi:10.1021/je901050v).

Legend:
[1] = refractive index (Na D-line) (dimensionless); conditions: 101.33 kPa, Liquid, Standard Abbe refractometry
[2] = 101.33 kPa, Liquid; for mass density: Vibrating tube method; for viscosity: Concentric cylinders viscometry

CCCCCCCCCCn1cc[n+](CCC#N)c1.[Br-] [3-(2-cyanoethyl)-1-decyl-1H-imidazolium bromide]
Conditions | mass density, [2] [kg/m3] | refractive index, [1] | viscosity, [2] [mPa·s]
308.15 K | 1134.2 | 1.50786 | –
313.15 K | 1129.5 | 1.50696 | 16702
318.15 K | 1125.6 | 1.50606 | 10314
323.15 K | 1121.2 | 1.50502 | 6813.4
328.15 K | 1118.2 | 1.50388 | 4573.6
333.15 K | 1115 | 1.50279 | 3016.4
338.15 K | 1111.7 | – | 2051.2
343.15 K | 1108.5 | – | 1426.6
348.15 K | 1105.2 | – | 1014.6
353.15 K | 1101.9 | – | 737

CCCCCCn1cc[n+](CCC#N)c1.[Br-] [3-(2-cyanoethyl)-1-hexyl-1H-imidazolium bromide]
Conditions | mass density, [2] [kg/m3] | refractive index, [1] | viscosity, [2] [mPa·s]
293.15 K | 1232.4 | – | –
298.15 K | 1229 | 1.52872 | –
303.15 K | 1225.6 | 1.52823 | 15893
308.15 K | 1222.3 | 1.52719 | 9029.8
313.15 K | 1219 | 1.526 | 5610.4
318.15 K | 1215.7 | 1.52479 | 3602.1
323.15 K | 1212.4 | 1.52354 | 2379.9
328.15 K | 1209.1 | 1.52229 | 1618.2
333.15 K | 1205.8 | 1.52117 | 1128.4
338.15 K | 1202.5 | – | 805.1
343.15 K | 1199.2 | – | 639.6
348.15 K | 1195.9 | – | 465.7
353.15 K | 1192.7 | – | 359.3

CCCCCCCCn1cc[n+](CCC#N)c1.[Br-] [3-(2-cyanoethyl)-1-octyl-1H-imidazolium bromide]
Conditions | mass density, [2] [kg/m3] | refractive index, [1] | viscosity, [2] [mPa·s]
293.15 K | 1180.1 | – | –
298.15 K | 1176.6 | 1.51473 | –
303.15 K | 1173.2 | 1.51362 | –
308.15 K | 1169.8 | 1.51266 | 19620
313.15 K | 1166.4 | 1.51149 | 13044
318.15 K | 1163 | 1.51024 | 8302.7
323.15 K | 1159.6 | 1.50891 | 5136.1
328.15 K | 1156.2 | 1.50757 | 3291.8
333.15 K | 1152.9 | 1.50604 | 2160.4
338.15 K | 1149.5 | – | 1459.8
343.15 K | 1146.1 | – | 1019.6
348.15 K | 1142.8 | – | 727.9
353.15 K | 1139.6 | – | 530.5

CCCCn1cc[n+](CCC#N)c1.[Br-] [1-butyl-3-(2-cyanoethyl)-1H-imidazolium bromide]
Conditions | mass density, [2] [kg/m3] | refractive index, [1] | viscosity, [2] [mPa·s]
293.15 K | 1308.5 | – | –
298.15 K | 1304.7 | 1.5454 | 19103
303.15 K | 1301.1 | 1.54454 | 11304
308.15 K | 1297.7 | 1.54346 | 7058.4
313.15 K | 1294.3 | 1.54229 | 4502.1
318.15 K | 1291 | 1.54111 | 2953
323.15 K | 1287.6 | 1.53992 | 1989.7
328.15 K | 1284.4 | 1.53869 | 1377.5
333.15 K | 1281.2 | 1.53748 | 975.6
338.15 K | 1277.9 | – | 705.8
343.15 K | 1274.7 | – | 520.5
348.15 K | 1271.4 | – | 390.7
353.15 K | 1268.2 | – | 298.1
